Laboratory results published in patent publication US5405958A, “Photochromic spiro(indoline)naphthoxazine compounds” (Transitions Optical, Inc., priority 1992, dated 1995).

Experiments:
Assay type in all cases: physicochemical
[1] = Lambda max in imbibed polymer matrix test squares; conditions: for LAMBDA MAX: in polymer matrix test squares of diethylene glycol bis(allyl carbonate)
Procedure: (§1) These compounds were imbibed by thermal transfer into test squares of a polymeric matrix prepared from a diethylene glycol bis(allyl carbonate) composition by the following procedure: Each photochromic compound was dissolved in toluene to form a 4 weight percent solution of the compound. A piece of No. 4 Whatman filter paper was saturated with the toluene solution of the photochromic compound and allowed to air dry. The dried filter paper was placed on one side of the polymer test square, which measured 1/8 inch (0.3 centimeter)×2 inch (5.1 centimeters)×2 inch (5.1 centimeters). A piece of untreated filter paper was placed on the other side of the polymer test square and the resulting sandwich placed between two plates of flat aluminum metal plates. […] The imbibed test squares were washed with acetone after removal from the oven.
(§2) The Δ OD/min., which represents the sensitivity of the photochromic compound's response to UV light, was measured using photopic filters on the silicon detector. The response of the filtered detector approximated the luminosity curve. The Δ OD was measured over the first five (5) seconds of UV exposure, then expressed on a per minute basis. The saturation optical density (OD) was taken under identical conditions as the Δ OD/min., except UV exposure was continued for 20 minutes. The lambda max reported in Table 2 is the wavelength in the ultraviolet range closest to the visible spectrum or in the threshold range, i.e., 390 to 410 nanometers, of the visible spectrum at which the maximum absorption and activation of the photochromic compound occurs in the polymer matrix test squares.

[2] = Photochromic response (sensitivity, saturation optical density) of imbibed polymer test squares on optical bench; conditions: for Δ OD @ SATURATION: UV exposure continued for 20 minutes; for Δ OD/min. SENSITIVITY: first five (5) seconds of UV exposure, expressed per minute, photopic filters, about one sun
Procedure: as §1
(§3) The imbibed polymer test squares were tested for photochromic response rates on an optical bench. The samples were illuminated by a 150 watt Xenon lamp fitted with a copper sulfate bath and a neutral density filter at an intensity of about one sun. A second beam of light provided by a filtered tungsten lamp arranged to pass through the sample area exposed by the UV source was used to monitor changes in transmission of the sample over different wavelength ranges in the visible region of the spectrum. The intensity of the monitoring beam after passing through the sample was measured by means of an IL-1500 radiometer equipped with a silicon detector head and matching filters.
as §2

[3] = Bleach rate of imbibed polymer test squares; conditions: for BLEACH RATE T 1/2: 25.7±0.5° C., after removal of activating light
Procedure: as §1, §3

[4] = UV spectrophotometer lambda max in diethylene glycol dimethyl ether solution; conditions: for lambda max compared with compound samples A, B and D (in words): Table 1 values vs. samples A, B and D of Table 2; for LAMBDA MAX: in diethylene glycol dimethyl ether, approximately 0.5 milligrams per milliliter
Procedure: The principal products of Examples 1, 2 and 3 were dissolved in diethylene glycol dimethyl ether. The concentrations of the resulting solutions were approximately 0.5 milligrams per milliliter. Each solution was tested in a UV spectrophotometer to determine its lambda max. The lambda max reported in Table 1 is the wavelength in the ultraviolet range closest to the visible spectrum or in the threshold range, i.e., 390 to 410 nanometers, of the visible spectrum, at which the maximum absorption and activation of the photochromic compound occurs in diethylene glycol dimethyl ether.

[5] = Colour change of diethylene glycol dimethyl ether solution on ultraviolet irradiation

| Compound | LAMBDA MAX [1] | Δ OD @ SATURATION [2] | Δ OD/min. SENSITIVITY [2] | BLEACH RATE T 1/2 [3] [min] | lambda max compared with compound samples A, B and D (in words) [4] | LAMBDA MAX [4] | colour of solution after the ultraviolet light was removed [5] | colour of solution before irradiation [5] | colour of solution when irradiated with ultraviolet light [5] | absorption maxima in the UV spectrum compared with compounds A, B and D (in words) ([1]; polymer test squares) | optical density at saturation compared with the other compounds (in words) ([2]; polymer test squares) | sensitivity compared with the other compounds (in words) ([2]; polymer test squares) | bleach rate (in words) ([3]; polymer test squares) |
| --- | --- | --- | --- | --- | --- | --- | --- | --- | --- | --- | --- | --- | --- |
| CCCN1c2cc(C)c(C)cc2C(C)(C)C12C=Nc1c(ccc3ccc(OC)cc13)O2 (centres unmarked) [A, 1propyl-3,3,5,6-tetramethyl-9methoxy-spiro[indoline2,3[3H]naphth[2,1b][1,]oxazine]] | 336 | 0.11 Δ OD | 0.15 Δ OD/min. | 1.17 |  |  |  |  |  |  |  |  |  |
| 1,3,3,4,5(or 1,3,3,5,6,)-pentamethyl-9'-methoxycarbonyl-8'-hydroxy-spiro[indoline-2,3'-[3H]naphth[2,1-b][1,41oxazine] [Example 1] |  |  |  |  | relatively high lambda max values | 403 | returned to its original slightly colored condition | slight yellow cast | changed to green |  |  |  |  |
| 1,3,3,4,5(or 1,3,3,5,6,)-pentamethyl-9'-methoxycarbonyl-8'-methoxy-spiro[indoline-2,3'-[3H]naphth[2,1-b][1,41oxazine] [Example 2] |  |  |  |  | relatively high lambda max values | 383 | returned to its original colorless condition | colorless | changed to blue |  |  |  |  |
| 1-propyl-3,3,4,5(or 3,3,5,6)-tetramethyl-9'-methoxycarbonyl-8'-acetoxy-spiro[indoline-2,3'-[3H]naphth[2,1-b][1,4]oxazine] [Compound C] | 374 | 0.42 Δ OD | 0.46 Δ OD/min. | 2.27 |  |  |  |  |  | unexpectedly higher than compounds A, B and D | higher optical density at saturation | improved sensitivity | acceptable bleach rate |
| 1,3,3,4,5(or 1,3,3,5,6,)-pentamethyl-9'-methoxy-carbonyl-8'-acetoxy-spiro[indoline-2,3'-[3H]naphth[2,1-b][1,4]oxazine] [Example 3] |  |  |  |  | relatively high lambda max values | 374 | returned to its original colorless condition | colorless | changed to blue |  |  |  |  |
| CCCN1c2cc(C)c(C)cc2C(C)(C)C12C=Nc1c(ccc3ncccc13)O2 (centres unmarked) [B, 1propyl-3,3,5,6-tetramethyl-spiro[indoline2,3[3H]pyrido[3,2f][1,4]benzoxaine]] | 350 | 0.36 Δ OD | 0.44 Δ OD/min. | 1.15 |  |  |  |  |  |  |  |  |  |
| 1propyl-3,3,4,5(or 3,3,5,6)tetramethyl-spiro[indoline2,3[3H]naphth[2,1b][1,4]oxazine] | 346 | 0.11 Δ OD | 0.21 Δ OD/min. | 0.783 |  |  |  |  |  |  |  |  |  |
